The record followed here is patent US12593845B2 (priority 2019, dated 2026).

Each structure is given as a SMILES string. Where only a bound is given, the exact number is not on record here.

The test system of test [1] is apple scab pathogen (Venturia inaequalis). As to the kind of experiment: Apple scab control test. The format is in vivo. As to conditions: 336 h, 125 ppm drug solution sprayed onto apple seedlings (Orin), lesion area ratio 2 weeks after inoculation. An outline of the steps: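 Compound emulsion diluted in water to 125 ppm and sprayed on 3-4 leaf 'Orin' apple seedlings, which were inoculated with V. inaequalis conidiospores after drying and held humidified at 20° C, 12 h light/dark. Lesion area ratio scored 2 weeks post-inoculation; control value computed relative to unsprayed inoculated plants.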

For test [2], the system named is wheat powdery mildew pathogen (Erysiphe graminis f. sp. tritici). Nature of the test: Wheat powdery mildew control test. The format is in vivo. The note with it: Blumeria graminis, 144 h; 125 ppm drug solution sprayed onto wheat seedlings (Chihoku); lesion area ratio 6 days after inoculation. The procedure: (§1) 5 parts by weight of the dihydropyrimidine compound of the present invention, 93.5 parts by weight of N,N-dimethylformamide, and 1.5 parts by weight of polyoxyethylene sorbitan monolaurate (TWEEN® 20) were mixed and dissolved to obtain an emulsion (I) including 5% of an active ingredient.
(§2) The control value was calculated by the following expression. Control value (%)=100−{lesion area ratio in treated group/lesion area ratio in untreated group}×100 [Expression 1]
Water was added to the emulsion (I) such that the concentration of the dihydropyrimidine compound reached 125 ppm to dissolve the emulsion, and a drug solution was obtained. Subsequently, the drug solution was sprayed onto wheat seedlings (variety: “Chihoku”, leaf stage: 1 to 2) cultivated in seedling pots. After air drying, conidiospores of a wheat powdery mildew pathogen (Erysiphe graminis f. sp. tritici) were sprinkled thereon for inoculation (treated group). As a control, wheat seedlings that were not sprayed with the drug solution were inoculated in the same manner as described above (untreated group). The seedlings were left to stand in a greenhouse at 20° C.
On the 6 days after the inoculation, the leaves of the wheat seedlings were visually observed to determine the lesion area ratio, and the control value was calculated.

For test [3], the system named is wheat brown rust pathogen (Puccinia recondita). Nature of the test: Wheat brown rust control test. The format is in vivo. As to conditions: 288 h, 125 ppm drug solution sprayed onto wheat seedlings (Norin 61), lesion area ratio 12 days after inoculation. The procedure: as §1, §2
Water was added to the emulsion (I) such that the concentration of the dihydropyrimidine compound reached 125 ppm to dissolve the emulsion, and a drug solution was obtained. Subsequently, the drug solution was sprayed onto wheat seedlings (variety: “Norin 61”, leaf stage: 1 to 2) cultivated in seedling pots. After air drying, uredospores of a wheat brown rust pathogen (Puccinia recondita) were sprinkled on wheat seedlings sprayed with the drug solution for inoculation (treated group). As a control, wheat seedlings that were not sprayed with the drug solution were inoculated in the same manner as described above (untreated group). The seedlings were left to stand in a greenhouse at 20° C.
On the 12 days after the inoculation, the leaves of the wheat seedlings were visually observed to determine the lesion area ratio, and the control value was calculated.

Another test has as its system Aspergillus niger. As to the kind of experiment: Antimicrobial test against Aspergillus niger. The format is cell-based. The note with it: 96 h, Vogel medium, 25° C., 4 days in the dark, turbidity at 405 nm, read-out: growth inhibition rate. An outline of the steps: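 A. niger spores dispersed in Vogel medium with compound (DMSO solution) at 25 ppm, cultured in the dark at 25° C. for 4 days. Turbidity at 405 nm compared with untreated culture to give growth inhibition (%).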

Another test concerns Meloidogyne incognita. Nature of the test: Efficacy against Meloidogyne incognita. The format is in vivo. As to conditions: 96 h, second-instar larvae (L2), 40 μL of 125 ppm drug solution added to 160 μL suspension per well, 20° C., 4 days, read-out: nematode mortality rate. The procedure: as §1
A suspension containing about 50/0.16 mL second-instar larvae (L2) of Meloidogyne incognita was poured into a 96-well microplate at 160 μL per well. Then, a drug solution prepared by adding water to the emulsion (I) so as to have a concentration of the dihydropyrimidine compound of 125 ppm was poured at 40 μL per well. The plate was left to stand under a 20° C. condition for 4 days.
Mortality was determined, and the nematode mortality rate was calculated. […] The test repeated twice.

Test [4] has as its system wheat powdery mildew pathogen (Erysiphe graminis f. sp. tritici). Nature of the test: Wheat powdery mildew seed treatment test. The format is in vivo. The note with it: Blumeria graminis, 168 h; seed treatment 100 g/100 kg wheat seeds (Chihoku); inoculation after 8 to 10 days; lesion area ratio 7 days after inoculation. As for the experimental part:
as §1, §2
The emulsion (I) was used to treat seeds such that (weight of dihydropyrimidine compound)/(weight of seeds) reached 100 g/100 kg based on the wheat seeds (variety: “Chihoku”). These seeds were disseminated in pots, and after 8 to 10 days, conidiospores of a wheat powdery mildew pathogen (Erysiphe graminis f. sp. tritici) were sprinkled thereon for inoculation (treated group). As a control, wheat seedlings that were not treated with the drug were inoculated in the same manner as described above (untreated group). The seedlings were left to stand in a greenhouse at 20° C.
(§3) On the 7 days after the inoculation, the leaves of the wheat seedlings were visually observed to determine the lesion area ratio, and the control value was calculated.

Test [5] has the same test system. As to the kind of experiment: Wheat powdery mildew soil irrigation treatment test. The format is in vivo. The note with it: Blumeria graminis, 168 h; soil irrigation with 10 ml of 100 ppm drug solution per pot, wheat (Chihoku); inoculation after 8 to 10 days; lesion area ratio 7 days after inoculation. As for the experimental part: as §1, §2
Pots (5.5 cm×5.5 cm) in which wheat seeds (variety: “Chihoku”) were disseminated were irrigated with 10 ml of a drug solution prepared by adding water to the emulsion (I) so as to have a concentration of the dihydropyrimidine compound of 100 ppm. After 8 to 10 days, conidiospores of a wheat powdery mildew pathogen (Erysiphe graminis f. sp. tritici) were sprinkled thereon for inoculation (treated group). As a control, wheat seedlings that were not treated with the drug were inoculated in the same manner as described above (untreated group). The seedlings were left to stand in a greenhouse at 20° C.
as §3

`COc1ccc(F)cc1C(Cn1cc(/C(C)=N/OC(C)C)c(=O)n(CC(C)(C)C(=O)NC(C)C)c1=O)OCCC#N` (centres unmarked) [A-1]: the pest or weed control at 125 ppm in test [1], in test [2] and in test [3] was no less than 75% in each case. Besides, the inhibition at 25 ppm in the test on Aspergillus niger is no less than 50%.

For `COc1ccc(F)cc1C(O)Cn1cc(/C(C)=N/OC(C)C)c(=O)n(CC(C)(C)C(=O)NC(C)C)c1=O` (centres unmarked) [A-2], the pest or weed control at 125 ppm in test [1], in test [2] and in test [3] was no less than 75% each time.

Turning to `COc1ccc(F)cc1C(Cn1cc(C=NOCC(F)F)c(=O)n(C(C)C(=O)NC(C)C)c1=O)OCCC#N` (centres unmarked) [A-10], the pest or weed control at 125 ppm in test [1], in test [2] and in test [3] was no less than 75% each time.

For the molecule `CCCON=Cc1cn(CC(OCCC#N)c2cc(F)ccc2OC)c(=O)n(C(C)C(=O)NC(C)C)c1=O` (centres unmarked) [A-11], the pest or weed control at 125 ppm in test [1], in test [2] and in test [3] was no less than 75% throughout.

For the molecule `COc1ccc(F)cc1C(Cn1cc(C=NOC(C)C)c(=O)n(C(C)C(=O)NC(C)C)c1=O)OCCC#N` (centres unmarked) [A-14, 2-(3-(2-(2-cyanoethoxy)-2-(5-fluoro-2-methoxyphenyl)ethyl)-5-((isopropoxyimino)methyl)-2,6-dioxo-3,6-dihydropyrimidin-1(2H)-yl)-N-isopropylpropanamide], the pest or weed control at 125 ppm in test [1], in test [2] and in test [3] was no less than 75% each time. Moreover, the inhibition at 25 ppm with Aspergillus niger is no less than 50%.

In the case of `CCON=Cc1cn(CC(OCCC#N)c2cc(F)ccc2OC)c(=O)n(CCNC(=O)C(C)C)c1=O` (centres unmarked) [A-17], the pest or weed control at 125 ppm in test [1], in test [2] and in test [3] was no less than 75% in each case.

Consider `CCON=Cc1cn(CC(OCCC#N)c2cc(F)ccc2OC)c(=O)n(C(C)C(=O)NC(C)C)c1=O` (centres unmarked) [A-23], for which the pest or weed control at 125 ppm in test [1], in test [2] and in test [3] was no less than 75% each time. For the same molecule, the inhibition at 25 ppm in the test on Aspergillus niger was no less than 50%.

`CCO/N=C(\C)c1cn(CC(OCCC#N)c2cc(F)ccc2OC)c(=O)n(CC(C)(C)C(=O)NC(C)C)c1=O` (centres unmarked) [A-24]: the pest or weed control at 125 ppm in test [1], in test [2] and in test [3] was no less than 75% each time. In addition, the inhibition at 25 ppm in the test on Aspergillus niger is no less than 50%.

In the case of `CON=C(C)c1cn(CC(O)c2cc(F)ccc2OC)c(=O)n(C(C)C(=O)NC(C)C)c1=O` (centres unmarked) [A-28], the mortality at 125 ppm in the test with Meloidogyne incognita is no less than 60%.

Consider `CCO/N=C(\C)c1cn(CC(O)c2cc(F)ccc2OC)c(=O)n(C2CCCC2NC(=O)C(C)C)c1=O` (centres unmarked) [A-48], for which the pest or weed control at 125 ppm in test [1], in test [2] and in test [3] was no less than 75% throughout.

Turning to `COc1ccc(F)cc1C(Cn1cc(C=NOC(C)C)c(=O)n(C[C@H](C)NC(=O)C(C)C)c1=O)OCCC#N` (some centres unmarked) [A-60], the pest or weed control at 125 ppm in test [1], in test [2] and in test [3] was no less than 75% in each case. For the same molecule, in test [4], the pest or weed control at 100 g/100 kg seed is no less than 75%. In addition, the pest or weed control at 100 ppm in test [5] is no less than 75%. In addition, the inhibition at 25 ppm with Aspergillus niger was no less than 50%.

For the molecule `COc1ccc(F)cc1C(Cn1cc(/C(C)=N/OC(C)C)c(=O)n(C[C@H](C)NC(=O)C(C)C)c1=O)OC` (some centres unmarked) [A-61], the pest or weed control at 125 ppm in test [1], in test [2] and in test [3] was no less than 75% throughout. The pest or weed control at 100 g/100 kg seed in test [4] is no less than 75%. Further, the inhibition at 25 ppm with Aspergillus niger is no less than 50%.

Regarding `COc1ccc(F)cc1C(Cn1cc(/C(C)=N/OC(C)C)c(=O)n(C[C@H](C)NC(=O)C(C)C)c1=O)OCCC#N` (some centres unmarked) [A-63], the pest or weed control at 125 ppm in test [1], in test [2] and in test [3] was no less than 75% each time. Further, the inhibition at 25 ppm with Aspergillus niger is no less than 50%.

As for `C=C1CCN(C(=O)C(C)n2c(=O)c(C=NOC(C)C)cn(CC(O)c3cc(F)ccc3OC)c2=O)CC1` (centres unmarked) [A-70], the pest or weed control at 125 ppm in test [1], in test [2] and in test [3] was no less than 75% in each case.

With `COc1ccc(F)cc1C(O)Cn1cc(C=NOC(C)C)c(=O)n(C[C@H](C)NC(=O)C(C)C)c1=O` (some centres unmarked) [A-76], the pest or weed control at 125 ppm in test [1], in test [2] and in test [3] was no less than 75% each time. For the same molecule, the pest or weed control at 100 g/100 kg seed in test [4] is no less than 75%. Besides, in test [5], the pest or weed control at 100 ppm is no less than 75%. Also, in the test on Aspergillus niger, the inhibition at 25 ppm is no less than 50%.

Regarding `COc1ccc(F)cc1C(Cn1cc(C=NOC(C)C)c(=O)n(C(C)C(=O)NC2CC2)c1=O)OCCC#N` (centres unmarked) [A-80], the pest or weed control at 125 ppm in test [1], in test [2] and in test [3] was no less than 75% each time. In the test on Aspergillus niger, the inhibition at 25 ppm is no less than 50%.

Consider `CCON=Cc1cn(CC(OC)c2cc(F)ccc2OC)c(=O)n(C(C)C(=O)NC(C)C)c1=O` (centres unmarked) [A-91], for which the pest or weed control at 125 ppm in test [1], in test [2] and in test [3] was no less than 75% in each case.

Take `COc1ccc(F)cc1C(O)Cn1cc(C=NOC(C)C)c(=O)n(C(C)C(=O)NC(C)C)c1=O` (centres unmarked) [A-93]: the pest or weed control at 125 ppm in test [1], in test [2] and in test [3] was no less than 75% each time. Besides, the inhibition at 25 ppm in the test with Aspergillus niger was no less than 50%.

In the case of `C=CCOC(Cn1cc(/C(C)=N/OCC)c(=O)n(CCNC(=O)C(C)C)c1=O)c1cc(F)ccc1OC` (centres unmarked) [A-95], the pest or weed control at 125 ppm in test [1], in test [2] and in test [3] was no less than 75% throughout. Moreover, the inhibition at 25 ppm in the test with Aspergillus niger was no less than 50%.

`COc1ccc(F)cc1C(Cn1cc(/C(C)=N/OC(C)C)c(=O)n(CCN(C)C(=O)C(C)C)c1=O)OC` (centres unmarked) [A-99]: the pest or weed control at 125 ppm in test [1], in test [2] and in test [3] was no less than 75% each time.

`COc1ccc(F)cc1C(Cn1cc(/C(C)=N/OC(C)C)c(=O)n(CCNC(=O)C(C)C)c1=O)OC` (centres unmarked) [A-100]: the pest or weed control at 125 ppm in test [1], in test [2] and in test [3] was no less than 75% each time. Further, the inhibition at 25 ppm in the test with Aspergillus niger is no less than 50%.

Regarding `CC[C@@H](Cn1c(=O)c(/C(C)=N/OC(C)C)cn(CC(O)c2ccccc2OC)c1=O)NC(=O)C(C)C` (some centres unmarked) [C-92], the mortality at 125 ppm with Meloidogyne incognita is no less than 60%.

As for `COc1ccc(Br)cc1C(O)Cn1cc(/C(C)=N/OC(C)C)c(=O)n(C[C@H](C)NC(=O)C(C)C)c1=O` (some centres unmarked) [C-145], the mortality at 125 ppm with Meloidogyne incognita is no less than 60%.

In general, pest or weed control refers to how far the test organism was held down. For orientation: inhibition means the drop in the measured response relative to a control, in per cent. For orientation: mortality means the percentage killed.
